# Tested on: Slc: C57BL/6J male mice
# Assay: Evaluation of antimanic effect (methamphetamine and chlordiazepoxide induced hyperactivity, locomotor distance)
# Assay type: in vivo
# Settings: methamphetamine 4 mg/kg and chlordiazepoxide 10 mg/kg i.p.
# Description: Meanwhile, there are no reports about animal models which provide a good clinical prediction to evaluate the improving efficacy for bipolar disorder. However, bipolar disorder comprises “manic state” and “depressive state”, and some animals are reported to be useful as a model to evaluate the improvement of each pathological condition individually. In general, an index of manic state is excessive hyperactivity induced by administering methamphetamine and chlordiazepoxide in combination, and that of depressive state is immobility induced by forced swimming.
# Test 7: Evaluation of Antimanic Effect
# Test 7 evaluates the antimanic effect of medicaments. The evaluation system is a test system whose utility has been already confirmed with a known antimanic agent which is clinically used as a mood-stabilizing drug, not as a drug for treating schizophrenia (Arban et al., Behay. Brain Res., 158:123-132, 2005, Foreman et al., Pharmacol. Biochem. Behay., 89: 523-534, 2008). Test compounds were orally administered to Slc: C57BL/6J male mice (8 mice in each group, body weight 20-26 g). After 30 minutes of administration, methamphetamine (4 mg/kg) and chlordiazepoxide (10 mg/kg) were administered intraperitoneally. Then, the mice were allowed to move freely in an acrylic cage (W 360 mm×D 230 mm×H 310 mm) for 90 minutes. The locomotor distances of the mice were measured with Ethovision software (Ver. 3.1). Among the 90 minutes, the result of the latter 60 minutes with the exception of the first 30 minute's result for adaptation to the new environment was used as data of the locomotor distance. The antimanic effect was evaluated by calculating how long locomotor distance was shortened against the control. To the control mice, 0.5% methylcellulose solution was administered.
structure (smiles),measurement,setting,value
"NC(=O)Cc1ccccc1-c1ccccc1F [Example 1, 2-(2′-Fluorobiphenyl-2-yl)acetamide]",The rate of the shortened locomotor-distance (% control),30 mg/kg oral,24.1 % control
same,The rate of the shortened locomotor-distance (% control),60 mg/kg oral,43.8 % control
same,The rate of the shortened locomotor-distance (% control),100 mg/kg oral,73.8 % control
